Some test systems named below: NCI-H522; SF-539; SW-620; K562; UO-31; HCT-15; M14; HL-60; UACC-62; HCC 2998; OVCAR-3; KM12; SK-MEL-2; OVCAR-4; SNB-75.
What all share (assay): DTP human tumour cell line panel, 48 h

One may read the GI50 as the concentration at which growth is held to half of that of the control.

SMILES strings stand for the structures.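 Assay format: 96-well plates, 48-hour exposure. Abbreviation: GI50, concentration required for 50% inhibition of growth.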 Activity calls are given as the source filed them. Rule as the data show it: active = GI50 up to about 1.1 µM and inactive = higher. A value given as a limit tells only on which side of the number the result lay.

`Cn1nc(-c2ccccc2)c(C(=O)/C=C/c2ccc(F)cc2)c(N2CCCC2)c1=O`: the GI50 was 6.4 µM (inactive) in the test with NCI-H522; 13.6 µM (inactive) with SF-539; 15.6 µM (inactive) in the test with SW-620; 7.82 µM (inactive) in the test on K562; > 10 µM (inactive) in the test on UO-31; 12.2 µM with HCT-15. In addition, the GI50 in the test on M14 was 15.9 µM (inactive); with HL-60 it was 0.644 µM (active); with UACC-62, 12.7 µM (inactive).
With `C=C1C(=O)OC2/C=C(\C)C3OC3/C=C(/C(=O)OC)C(O)C(OC(=O)C3(C)OC3C)C12` (stereo not given), the GI50 with NCI-H522 is 0.193 µM (active); in the test with SF-539 it was 2.18 µM (inactive); in the test on SW-620, 0.959 µM (active); in the test with K562 it was 0.685 µM (active); with UO-31 it was 11.2 µM (inactive); in the test on HCT-15 it was 1.53 µM. The GI50 was 1.9 µM (inactive) in the test with HCC 2998; 1.9 µM (inactive) in the test on M14; 2.42 µM (inactive) with OVCAR-3; 2.95 µM (inactive) in the test on KM12; 2.48 µM (inactive) in the test with SK-MEL-2; 2.88 µM (inactive) in the test on OVCAR-4. Further, the GI50 in the test with SNB-75 is 13.5 µM (inactive); in the test with UACC-62, 1.01 µM (active).
As to `O=c1c2ccccc2nc(-c2ccccc2)n1NC(=S)Nc1ccc(Cl)cc1[N+](=O)[O-]`, the GI50 was 42.7 µM (inactive) in the test with NCI-H522; 41.1 µM (inactive) in the test on SF-539; > 100 µM (inactive) with SW-620; 50.9 µM (inactive) with K562; 42.2 µM (inactive) in the test with UO-31; 35 µM in the test on HCT-15. The GI50 with M14 is > 100 µM (inactive); in the test with KM12 it was 66.4 µM (inactive); with HL-60, 35.3 µM (inactive); in the test on SK-MEL-2, > 100 µM (inactive); in the test with OVCAR-4, 88.5 µM (inactive); in the test on SNB-75, 29.2 µM (inactive). In addition, in the test with UACC-62, the GI50 was 39.7 µM (inactive).
On to `NC(=O)c1ccc([N+](=O)[O-])cc1`, for which the GI50 in the test on NCI-H522 was > 100 µM (inactive); in the test on SF-539 it was > 100 µM (inactive); with SW-620, > 100 µM (inactive); with K562 it was > 100 µM (inactive); in the test on UO-31 it was > 100 µM (inactive); with HCT-15 it was more than 100 µM. The GI50 in the test with HCC 2998, in the test on M14, in the test with OVCAR-3, with KM12, with SK-MEL-2 and with SNB-75 was > 100 µM (inactive) throughout. In addition, in the test on UACC-62, the GI50 was > 100 µM (inactive).
Take `COc1ccc(CCc2cc(OC)c(O)c(OC)c2)cc1`: the GI50 with NCI-H522 is 29.7 µM (inactive); in the test on SF-539 it was 60.7 µM (inactive); in the test with SW-620, 37.4 µM (inactive); in the test on K562 it was 33 µM (inactive); in the test on UO-31 it was 42.6 µM (inactive); with HCC 2998 it was 52 µM (inactive). Further, the GI50 is 77.3 µM (inactive) in the test with M14; 79.4 µM (inactive) with OVCAR-3; 58.2 µM (inactive) with KM12; 53 µM (inactive) in the test with SK-MEL-2; 81.5 µM (inactive) with OVCAR-4; 29.4 µM (inactive) in the test on SNB-75. Also, the GI50 with UACC-62 was 69 µM (inactive).
As for `c1cc2[se][se]c3c4cccc5[se][se]c(c(c1)c23)c54`, the GI50 with NCI-H522, with SF-539, in the test with SW-620, with K562, in the test with UO-31 and in the test on M14 was > 100 µM (inactive) in each case. Further, the GI50 in the test on OVCAR-3, in the test on KM12, in the test with HL-60, with SK-MEL-2, in the test on OVCAR-4 and with SNB-75 was > 100 µM (inactive) each time. The GI50 in the test with UACC-62 was > 100 µM (inactive).

(Values after ChEMBL document CHEMBL1201862, “PubChem BioAssay data set” (2004).)
